Measurements from patent publication US7412279B2, “Systems and methods for targeted magnetic resonance imaging of the vascular system” (Epix Pharmaceuticals, Inc., priority 2001, dated 2008).

Experiments:
thrombus [1] = assay: In vivo MRI of a jugular vein thrombus in the guinea pig, extracellular vascular agent followed by targeted agent; design: species or system guinea pig (Hartley male); conditions: vascular MR image
Description: A 600 g guinea pig (Hartley male) was anaesthetized with a cocktail of Ketamine (50 mg/kg), Aceapromazine (2.5 mg/kg), and Rompon (5 mg/kg), and anesthesia maintained with sodium pentobarbital (approx.35 mg/kg as needed). An incision was made in the throat and one of the jugular veins was isolated. A 1 cm section of the jugular vein was isolated with vascular clamps. Freshly drawn blood from the animal (50 μL) was mixed with human thrombin (50 uL, 4 units) and injected into the clamped segment of the vein. Four minutes after injection, the clamps were removed and the thrombus was allowed to age for 30 minutes.
The animal was placed inside a General Electric Signa LxCVi 1.5 tesla scanner and imaged using a 3D RF spoiled gradient echo sequence (SPGR) with the following parameters TR=22 ms, TE=3.1 ms, flip angle=40 degree, field of view=8 cm, acquisition bandwith=31.25 kHz. After one scan, an extracellular vascular MRI contrast agent, GdDTPA (Magnevist®), 100 μmol/kg, was injected via a catheter in the carotid artery. The image sequence was repeated 5 times over the next 30 minutes to acquire the vascular MRI data set. […]

thrombus [2] = assay: In vivo protocol: vascular agent followed by targeted agent, guinea pig jugular vein thrombus; design: species or system guinea pig (Hartley male); conditions: Example 1, 100 μmol/kg
Description: One procedure for in vivo imaging of a stationary target within the vascular system (e.g., a thrombus) with a vascular agent (e.g., an extracellular contrast agent or a blood pool agent), and a targeted contrast agent is as follows: A 600 g guinea pig (Hartley male) is anaesthetized. An incision is made in the throat and one of the jugular veins is isolated. A 1 cm section of the jugular vein is isolated with vascular clamps. Freshly drawn blood from the animal (50 μL) is mixed with human thrombin (50 μL, 4 units) and injected into the clamped segment of the vein. Four minutes after injection, the clamps are removed and the thrombus is allowed to age for 30 minutes. GdDTPA (Magnevist®), 100 μmol/kg, an extracellular contrast agent, is injected and the throat area of the guinea pig is imaged using the following pulse sequence on a GE Medical Systems 1.5T MRI: Tl-weighted SPGR, TE=3.1, TR=22, flip angle=40°. […] After 30 minutes, GdDTPA has cleared from the blood and a stationary target (thrombus) targeted MRI agent is injected at a dose of 6 μmol/kg. […]

thrombus [3] = assay: In vivo MRI of thrombi in the rabbit carotid artery (crush injury) and jugular vein; design: species or system New Zealand White rabbit
Description: A 2.5 kg female New Zealand White rabbit was anesthetized with a cocktail of Ketamine (50 mg/kg), Aceapromazine (2.5 mg/kg), and Rompon (5 mg/kg), and anesthesia maintained with sodium pentobarbital (approx.35 mg/kg as needed). An i.v. catheter (24 g) was placed into the ear vein and the ear artery. The jugular vein and carotid artery were isolated. A stenosis was created in the carotid artery by placing an 18 g needle on top of the vessel and then suturing it into place with 3-0 suture. The needle was then removed. A 5 mm portion of the artery was then segmented off distally to the stenosis with microvascular clips. The artery was crushed twice along the 5 mm section. The proximal vascular clip was released to allow blood flow into the section for circa 3 sec. The clip was reapplied and the artery was crushed twice again along the 5 mm section. After 4 minutes, the clips were removed. A 5 mm segment of the jugular vein was isolated with microvascular clips. A thrombus was created by injecting 100 μL of a 3.7 units thrombin, 0.06 M CaCl2, rabbit whole blood mixture. After 4 minutes, the clips were removed.
The thrombi were allowed to age for 50 minutes. A 1.0 mL solution of a 5 mM targeted contrast agent (Structure III, 2 μmol/kg) was administered via the ear vein. […]

For O=C([O-])CN(CCN(CC(=O)[O-])CC(=O)O)CCN(CC(=O)[O-])CC(=O)O.[Gd+3] [GdDTPA], the “enhancement of the vascular system” value (thrombus [1]; Example 10, 100 μmol/kg via carotid artery catheter) was 4 fold, the “enhancement of the thrombus” value (thrombus [1]; Example 10, 100 μmol/kg) was “no observable enhancement” and the “enhancement of the thrombus” value (thrombus [2]) was “no enhancement”. For the same molecule, the “enhancement of the vasculature” value (thrombus [2]; immediately after injection) was “some enhancement”.
In the case of Gd-DTPA-BSA, the “visibility of blood vessels (carotid arteries, jugular veins) in MIP” value (thrombus [3]; Example 6, 80 μmol Gd/kg, image acquired immediately after injection) is reported as “readily visible” and the “signal intensity of both the blood and thrombus” value (thrombus [3]; Example 9, 80 μmol Gd/kg, injected 80 minutes after the targeted agent) is reported as “increased dramatically”.
